Read-outs that look alike come from different tables or passages of the source.
What was measured:
[1] = for logDpH 7.0: pH 7; for logDpH 8.0: pH 8; for logDpH 9.0: pH 9; for logDpH 10.0: pH 10
Description: (§1) The retention behavior of the 42 basic compounds (Table 1) were investigated at different ratios of methanol (φ = 0.7–0.1, the interval was 0.1 or 0.05 based on the retention of the investigated solutes). The logk values were plotted versus φ for each solute at pH 7.0, pH 8.0, pH 9.0, and pH 10.0. […] The logD values of the model compounds and verification compounds calculated using Equation (S3) based on the logP and pH values are also listed in Table 1.
(§2) At each pH, the retention time (tR) of every analyte was determined for at least four different volume fractions (φ) of methanol. All the tR values of the solutes were obtained by averaging the results of at least three independent injections. The tR value was corrected using dual-point retention time correction (DP-RTC). For a detailed description of the process, refer to our previous work. For the different hydrophobicities of the studied compounds, benzene, toluene, and benzyl alcohol were used as anchor compounds in the DP-RTC method. The dead time t0 was determined using uracil. For each solute, the logarithm of k was plotted against φ, and logkw was obtained using the Equation (S1). The logD values of the model compounds were calculated using Equation (S3), and the logD–logkw models were established with Equation (S4). The statistical analysis for the regression model was accomplished using Origin 9.4. […]
(§3) Where, k is the capacity factor, φ is the volume fraction of organic modifier in the mobile phase, and S is the constant obtained by linear regression in the equations. […]
and logkw, which is usually called Collander equation [25 ]. lo g lo g wPm k n= + (S2)
Where, m and n are constants obtained by linear regression.
The Eqs. (S1) and (S2) are the basis for the determination of logP by revered- phase liquid chromatography (RPLC) method. For dissociative solutes, it has been confirmed by many studies that the logD calibrated from logP has a better linear correlation with logkw than logP.
For basic compounds, the logD value can be calibrated from Eq. (S3), and the Collander equation can be rewritten into Eq. (S4). log log( )D − −+ −+= + ++P […]
lo g ' lo g 'Dm k n= +w (S4)
Where, pKa1, pKa2 , … p Kan are the dissociation constants of basic compounds of corresponding acids in the mobile phase, pH is the pH value of mobile phase, m′ and n′ are fitting parameters. Han et al. pointed out that although mobile phase pH and pKa of solutes will change along with the varied organic modifier fraction, the difference between a couple of relevant pH and pKa is a constant. Therefore, the used pH and pKa in this paper were both the values obtained at 100% aqueous phase. […]

[2] = IS-RPLC retention on silica-based C18 column, logkw by linear solvent strength model; assay type: physicochemical
Procedure: as §1
The column temperature was set at 30 °C. Methanol and 20 mmol/L ammonium phosphate buffer (pH = 7.0, 8.0, 9.0, 10.0) was used as the mobile phase to perform isocratic elution. The injection volume was 10 µL and the detection wavelength for each eluted compound was set at its optimum absorption wavelength.
as §2, §3
The Eqs. (S1) and (S2) are the basis for the determination of logP by revered- phase liquid chromatography (RPLC) method. For dissociative solutes, it has been confirmed by many studies that the logD calibrated from logP has a better linear correlation with logkw than logP. […]

[3] = logD determined by multi-parameter QSRR models from IS-RPLC logkw; conditions: IS-RPLC retention (logkw)
Procedure: Multi-parameter QSRR models including logD, logkw, ne, A, and B were established using the multiple linear regression (MLR) method. In the process of linear fitting, ne, A, B, and their different combinations were introduced to optimize the models.
The logD values reported in the literature for these four compounds were calculated using Equation (S3) with corresponding pKa, logP, and pH values.
At each pH, the retention time (tR) of every analyte was determined for at least four different volume fractions (φ) of methanol. All the tR values of the solutes were obtained by averaging the results of at least three independent injections. The tR value was corrected using dual-point retention time correction (DP-RTC). For a detailed description of the process, refer to our previous work. For the different hydrophobicities of the studied compounds, benzene, toluene, and benzyl alcohol were used as anchor compounds in the DP-RTC method. The dead time t0 was determined using uracil. For each solute, the logarithm of k was plotted against φ, and logkw was obtained using the Equation (S1). The logD values of the model compounds were calculated using Equation (S3), and the logD–logkw models were established with Equation (S4). The statistical analysis for the regression model was accomplished using Origin 9.4.

[4] = design: method as in UFZ-LSER database; conditions: hydrogen bonding parameter B; ref UFZ-LSER database; cited from earlier work
[5] = ref database module of ACD/Labs software, cited from earlier work
[6] = ref database module of ACD/Labs software, cited from earlier work; for pKa: Table 4, verification compounds
[7] = pH 7.0, methanol/20 mmol/L ammonium phosphate buffer, Welch Xtimate C18, 30 °C, 100% aqueous extrapolation
[8] = pH 8.0, methanol/20 mmol/L ammonium phosphate buffer, Welch Xtimate C18, 30 °C, 100% aqueous extrapolation
[9] = pH 9.0, methanol/20 mmol/L ammonium phosphate buffer, Welch Xtimate C18, 30 °C, 100% aqueous extrapolation
[10] = pH 10.0, methanol/20 mmol/L ammonium phosphate buffer, Welch Xtimate C18, 30 °C, 100% aqueous extrapolation
[11] = Table 4, verification compounds

Structure (SMILES): Nc1ccc(Br)cc1 [4-Bromoaniline]
- logDpH 7.0 [1]: 1.74
- logDpH 8.0 [1]: 1.74
- logDpH 9.0 [1]: 1.74
- logDpH 10.0 [1]: 1.74
- logkw-pH 7.0 [2, 7]: 1.91
- logkw-pH 8.0 [2, 8]: 1.98
- logkw-pH 9.0 [2, 9]: 1.99
- logkw-pH 10.0 [2, 10]: 1.99
- chromatographic logD ([3]; pH 7): 1.83
- chromatographic logD ([3]; pH 8): 1.81
- chromatographic logD ([3]; pH 9): 1.85
- chromatographic logD ([3]; pH 10): 1.81
- B [4]: 1.19
- logP [5, 11]: 2.05
- logP ([5]; n-octanol/water): 2.05
- pKa [6]: 3.89
- pKa1 [6]: 3.89

Structure (SMILES): Cc1ccc(N)cc1 [4-Methylaniline]
- logDpH 7.0 [1]: 1.40
- logDpH 8.0 [1]: 1.41
- logDpH 9.0 [1]: 1.41
- logDpH 10.0 [1]: 1.41
- logkw-pH 7.0 ([2]; pH 7): 1.50
- logkw-pH 8.0 ([2]; pH 8): 1.53
- logkw-pH 9.0 ([2]; pH 9): 1.54
- logkw-pH 10.0 ([2]; pH 10): 1.58
- B [4]: 0.94
- logP ([5]; n-octanol/water): 1.41
- pKa1 [6]: 5.08

Structure (SMILES): c1ccc(CNCc2ccccc2)cc1 [Dibenzylamine]
- logDpH 7.0 [1]: 1.26
- logDpH 8.0 [1]: 2.20
- logDpH 9.0 [1]: 2.83
- logDpH 10.0 [1]: 3.01
- logkw-pH 7.0 [2, 7]: 2.42
- logkw-pH 8.0 [2, 8]: 2.99
- logkw-pH 9.0 [2, 9]: 3.28
- logkw-pH 10.0 [2, 10]: 4.54
- chromatographic logD ([3]; pH 7): 1.52
- chromatographic logD ([3]; pH 8): 2.36
- chromatographic logD ([3]; pH 9): 2.81
- chromatographic logD ([3]; pH 10): 3
- B [4]: 1.30
- logP [5, 11]: 3.03
- logP ([5]; n-octanol/water): 3.03
- pKa [6]: 8.76
- pKa1 [6]: 8.76

Structure (SMILES): CCN(CC)c1ccccc1 [N, N-Diethylaniline]
- logDpH 7.0 [1]: 3.17
- logDpH 8.0 [1]: 3.29
- logDpH 9.0 [1]: 3.31
- logDpH 10.0 [1]: 3.31
- logkw-pH 7.0 ([2]; pH 7): 3.20
- logkw-pH 8.0 ([2]; pH 8): 3.44
- logkw-pH 9.0 ([2]; pH 9): 3.47
- logkw-pH 10.0 ([2]; pH 10): 3.54
- B [4]: 0.95
- logP ([5]; n-octanol/water): 3.31
- pKa1 [6]: 6.57

Source: article PMC10005301, “Prediction of the n-Octanol/Water Partition Coefficients of Basic Compounds Using Multi-Parameter QSRR Models Based on IS-RPLC Retention Behavior in a Wide pH Range” (Molecules, 2023)
